In US6211173A, “Use of 2,3,4,5-tetrahydro-1H-3-benzazepines for the manufacture of a pharmaceutical composition for the treatment of sleep disorders” (Cenes Limited, priority 1997, dated 2001):

Columns and labels:
[1] = Serum concentration following oral administration in men (pharmacokinetic experiments); assay type: in vivo
Protocol: NNC 0756 (80 mg) and another dopamine D1 receptor antagonist, the compound of Example 4 (25 mg), were administered to two and three men, respectively. Serum concentrations of the compounds were measured 1.5 and 6.0 hours following oral administration of the compound of Example 4 and 1.5 and 8.0-8.8 hours following oral administration of NNC 0756.

dopamine D1 receptor [2] = conditions: preclinical, rat; cited from earlier work
[3] = background statement, no test described; cited from earlier work
dopamine D1 receptor [4] = conditions: preclinical, rat; cited from earlier work; remark: listed apart in the source

CN1CCc2cc([N+](=O)[O-])c(O)cc2C(c2cccc3c2OCC3)C1 (single isomer, unassigned; (+)) [Example 4, (+)-5-(2,3-dihydrobenzofuran-7-yl)-7-hydroxy-3-methyl-8-nitro-2,3,4,5-tetrahydro-1H-3-benzazepine]
serum concentration of the compound of Example 4 relative to the serum concentration measured 1.5 hours after drug administration ([1]; 25 mg oral, three men, 6 hours after administration vs 1.5 hours): about 10% | elimination time compared to NNC 0756 ([1]; compared to the kinetic profile of NNC 0756): shorter elimination time

CN1CCc2cc(Cl)c(O)cc2C(c2cccc3c2OCC3)C1 (single isomer, unassigned; (+)) [NNC 0756, (+)-8-chloro-7-hydroxy-3-methyl-5-(2,3-dihydrobenzofuran-7-yl)-2,3,4,5-tetrahydro-1H-3-benzazepine]
REM and non-REM sleep (dopamine D1 receptor [2]): increase in both REM and non-REM sleep | time spent in sleep (dopamine D1 receptor [2]): markedly enhance the time spent in sleep | serum concentration of NNC 0756 relative to the serum concentration measured 1.5 hours after administration ([1]; 80 mg oral, two men, 8.0-8.8 hours after administration vs 1.5 hours): about 35% | half life [3]: relatively long half life

Oc1cc2c(cc1O)C(c1ccccc1)CNCC2 (centres unmarked) [SKF 38393]
amount of REM sleep (dopamine D1 receptor [4]): reduced the amount of REM sleep | duration of wakefulness (dopamine D1 receptor [4]): increased the duration of wakefulness
